Measurements from patent US20240254087A1, “SELECTIVE, PARTIAL, AND ARRESTIN-BIASED 5-HT2A AGONISTS WITH UTILITY IN VARIOUS DISORDERS” (Saint Joseph's University, priority 2021, published 2024).
Entries after “also recorded” stand apart in the source; their conditions may differ. Counter-ions that a name gives are not always drawn. Like-named read-outs stand apart in the source and are kept apart here.

Legend:
5-HT2C [1] = molecular target: T1, 5-HT2C (Homo sapiens, UniProt P28335); assay: BRET Gq dissociation, 5-HT2C; assay type: cell-based; parameters: expressed in transfected cells; host or cells: HEK293T, transient; conditions: for Emax: read-out: 5-HT2C Gq Dissociation (BRET) EMAX ± SEM (%5-HT)
T1 sequence (P28335 33-458): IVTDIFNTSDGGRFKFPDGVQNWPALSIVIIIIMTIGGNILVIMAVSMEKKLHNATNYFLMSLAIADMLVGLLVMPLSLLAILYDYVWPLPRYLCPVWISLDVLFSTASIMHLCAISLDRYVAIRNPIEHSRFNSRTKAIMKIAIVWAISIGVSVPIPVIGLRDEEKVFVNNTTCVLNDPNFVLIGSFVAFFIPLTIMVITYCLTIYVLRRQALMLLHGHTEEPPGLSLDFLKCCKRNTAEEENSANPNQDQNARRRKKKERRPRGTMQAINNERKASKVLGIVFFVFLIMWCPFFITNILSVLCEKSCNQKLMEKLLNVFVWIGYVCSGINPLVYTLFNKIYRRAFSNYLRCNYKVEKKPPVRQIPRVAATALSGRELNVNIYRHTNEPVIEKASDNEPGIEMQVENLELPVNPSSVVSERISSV

male C57BL/6J mice = assay: Head-twitch response (HTR) in mice; assay type: in vivo, mouse; conditions: for ED50: Mus musculus
Description: Male C57BL/6J mice (6-8 weeks old) from Jackson Labs (Bar Harbor, ME, USA) were used for the behavioral experiments. The mice were housed on a reversed light-dark cycle (lights on at 1900 h, off at 0700 h) in an AAAC-approved vivarium at the University of California San Diego. Mice were housed up to four per cage in a climate-controlled room and with food and water provided ad libitum except during behavioral testing. Testing was performed between 1000 and 1800 h (during the dark phase of the light-dark cycle). The studies were conducted in accordance with National Institutes Health (NIH) guidelines and were approved by the University of California San Diego Institutional Animal Care and Use Committee.
The mice were allowed to recover from the magnet implantation surgeries for at least 1 week prior to behavioral testing. HTR experiments were conducted in a well-lit room, and the mice were allowed to habituate to the room for at least 1 h prior to testing. Head twitches was assessed in a 12-cm diameter glass cylinder surrounded by a magnetometer coil. Coil voltage was low-pass filtered (2 kHz), amplified, and digitized (20-kHz sampling rate) using a Powerlab/8SP with LabChart v 7.3.2 (ADInstruments, Colorado Springs, CO, USA). […] HTR counts were analyzed using one-way ANOVAs. Dunnett's test was used for post hoc comparisons.

5-HT2B [2] = molecular target: T2, 5-HT2B (Homo sapiens, UniProt P41595); assay: Ca2+ flux assay, 5-HT2B; assay type: cell-based; parameters: expressed in transfected cells; conditions: Ca2+ flux; for Emax: read-out: 5-HT2B Emax % 5-HT
T2 sequence (P41595 whole entry): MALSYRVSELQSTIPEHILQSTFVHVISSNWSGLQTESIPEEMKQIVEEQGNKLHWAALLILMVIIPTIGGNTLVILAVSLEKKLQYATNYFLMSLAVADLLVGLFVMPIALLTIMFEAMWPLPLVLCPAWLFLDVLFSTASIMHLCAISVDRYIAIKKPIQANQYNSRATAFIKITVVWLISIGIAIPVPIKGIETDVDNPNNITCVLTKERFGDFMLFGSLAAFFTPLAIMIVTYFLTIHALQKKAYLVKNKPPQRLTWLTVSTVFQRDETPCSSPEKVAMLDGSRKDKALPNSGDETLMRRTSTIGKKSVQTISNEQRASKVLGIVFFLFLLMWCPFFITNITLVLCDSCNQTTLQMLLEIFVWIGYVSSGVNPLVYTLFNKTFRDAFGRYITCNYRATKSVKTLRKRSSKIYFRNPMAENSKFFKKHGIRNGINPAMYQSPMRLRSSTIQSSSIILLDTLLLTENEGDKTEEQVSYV
Description: (§1) Cell lines were maintained in DMEM containing 10% FBS, 10 μg/mL Blasticidin (Invivogen), and 100 μg/mL Hygromycin B (GoldBio). At least 20-24 hours before the assay, receptor expression was induced with tetracycline ([…]) and cells were seeded into 384-well poly-L-lysine-coated black plates at a density of 7,500 cells/well in DMEM containing 1% dialyzed FBS. On the day of the assay, the cells were incubated for 1 h at 37° C. with Fluo-4 Direct dye (Invitrogen, 20 μl/well) reconstituted in drug buffer (20 mM HEPES-buffered HBSS, pH 7.4) containing 2.5 mM probenecid. Drug dilutions were prepared at 5X final concentration in McCorvy buffer (20 mM HEPES-buffered HBSS, 0).1% BSA, 0.01% ascorbic acid pH 7.4). After dye load, cells were allowed to equilibrate to room temperature for 15 minutes, and then placed in a FLIPR^TETRA fluorescence imaging plate reader (Molecular Devices). Fluorescence for the FLIPR^TETRA were programmed to read baseline fluorescence for 10 s (1 read/s), and afterward 5 μl of drug per well was added and read for a total of 5-10 min (1 read/s). Fluorescence in each well was normalized to the average of the first 10 reads for baseline fluorescence, and then either maximum-fold peak increase over basal or area under the curve (AUC) was calculated. […] Data was plotted and non-linear regression was performed using “log(agonist) vs. response” in Graphpad Prism 8 to yield Emax and EC50 parameter estimates.

5-HT2B [3] = molecular target: T2, 5-HT2B; assay: BRET Gq dissociation, 5-HT2B; assay type: cell-based; parameters: expressed in transfected cells; host or cells: HEK293T, transient; conditions: for Emax: read-out: 5-HT2B Gq Dissociation (BRET) EMAX ± SEM (%5-HT)
5-HT2A [4] = molecular target: 5-HT2A (Homo sapiens, UniProt P28223); assay: Ca2+ flux assay, 5-HT2A; assay type: cell-based; parameters: expressed in transfected cells; conditions: for EC50: 5-HT2A EC50, nM; for Emax: read-out: 5-HT2A Emax % 5-HT, Ca2+ flux
Chain of 5-HT2A (Homo sapiens, UniProt P28223) (P28223 whole entry): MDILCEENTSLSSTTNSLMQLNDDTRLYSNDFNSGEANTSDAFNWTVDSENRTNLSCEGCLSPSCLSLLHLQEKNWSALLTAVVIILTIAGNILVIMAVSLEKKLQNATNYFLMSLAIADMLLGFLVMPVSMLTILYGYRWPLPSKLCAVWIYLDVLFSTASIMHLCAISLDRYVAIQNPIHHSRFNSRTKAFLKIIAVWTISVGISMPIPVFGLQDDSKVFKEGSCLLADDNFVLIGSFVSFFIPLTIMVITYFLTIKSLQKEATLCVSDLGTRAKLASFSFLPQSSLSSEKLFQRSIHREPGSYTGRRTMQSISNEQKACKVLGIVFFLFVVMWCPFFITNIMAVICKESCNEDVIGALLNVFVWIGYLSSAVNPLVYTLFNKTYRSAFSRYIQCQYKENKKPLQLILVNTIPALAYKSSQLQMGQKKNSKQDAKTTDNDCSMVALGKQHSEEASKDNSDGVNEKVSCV
Description: as §1

5-HT2C [5] = molecular target: T1, 5-HT2C; assay: Ca2+ flux assay, 5-HT2C; assay type: cell-based; parameters: expressed in transfected cells; conditions: for EC50: 5-HT2C EC50, nM; for Emax: read-out: 5-HT2C Emax % 5-HT
Description: as §1

5-HT2A [6] = assay: Ca2+ flux assay, 5-HT2A; assay type: cell-based, human; conditions: Gq/11 Ca2+ mobilization; higher number = skewed towards 5-HT2A
Description: as §1

[7] = read-out: HTR ED50 μmol/kg (95% CI), SC, except DOI and 25D-NBOMe IP
[8] = read-out: HTR ED50 mg/kg (95% CI), SC, except DOI and 25D-NBOMe IP

SMILES | melting point | Max HTR response during a 30-min assessment (maximum counts ÷ baseline response) (male C57BL/6J mice) | ED50 (male C57BL/6J mice; [7]) | ED50 (male C57BL/6J mice; [8]) | 5-HT2B EC50, nM (5-HT2B [2]) | Emax (5-HT2B [2]) | EC50 (5-HT2A [4]; Ca2+ flux) | Emax (5-HT2A [4]) | EC50 (5-HT2C [5]) | Emax (5-HT2C [5]) | 5-HT2A/5-HT2c Selectivity Factor ΔLog(Emax/EC50) (5-HT2A [6]) | further results
COc1cc([N+](=O)[O-])c(OC)cc1CCNCc1cccc(O)c1 (as salt: HCl) [25N-NB-3-OH (21), 3-({[2-(2,5-dimethoxy-4-nitrophenyl)ethyl]amino}methyl)phenol] | 194 to 195.5 °C |  |  |  |  |  |  |  |  |  |  | 
COc1cc([N+](=O)[O-])c(OC)cc1CCNCc1cccc(F)c1OC (as salt: HCl) [25N-NB-2-MeO-3-F (19), [2-(2,5-dimethoxy-4-nitrophenyl)ethyl][(3-fluoro-2-methoxyphenyl)methyl]amine] | 155 to 156.7 °C |  |  |  |  |  |  |  |  |  |  | 
COc1cc([N+](=O)[O-])c(OC)cc1CCNCc1cccc(C)c1 (as salt: HCl) [25N-NB-3-Me (22), [2-(2,5-dimethoxy-4-nitrophenyl)ethyl][(3-methylphenyl)methyl]amine] | 194.4 to 195.5 °C |  |  |  |  |  |  |  |  |  |  | 
COc1cc([N+](=O)[O-])c(OC)cc1CCNCc1cccc2c1OC(F)(F)O2 (as salt: HCl) [25N-NBMDF2 (13), [(2,2-difluoro-2H-1,3-benzodioxol-4-yl)methyl][2-(2,5-dimethoxy-4-nitrophenyl)ethyl]amine] | 208.4 to 209.8 °C |  |  |  |  |  |  |  |  |  |  | 
COc1cc(Br)cc(OC)c1CC(C)NCc1cccc2ccccc12 (stereo not shown) (as salt: HCl) [(33)] | 207.9 to 209.2 °C |  |  |  |  |  |  |  |  |  |  | 
COc1cc([N+](=O)[O-])c(OC)cc1CCNCc1ccccc1C [25N-NBMe (6)] |  | 8.0-fold increase | 3.24 µmol/kg | 1.19 mg/kg | No activity | < 10% | 1.19 nM | 85 ± 1% | 33.2 nM | 89 ± 2% | 26.7 | EC50 (5-HT2C [1]): 0.0115 µM; Emax (5-HT2C [1]): 89.4 ± 2.3%; EC50 (5-HT2B [3]): 0.00955 µM; Emax (5-HT2B [3]): 22.2 ± 3.2%
COc1cc([N+](=O)[O-])c(OC)cc1CCNCc1ccccc1OC (as salt: HCl) [25N-NBOMe (4), [2-(2,5-dimethoxy-4-nitrophenyl)ethyl] [(2-methoxyphenyl)methyl]amine] | 166.4 to 167.8 °C |  |  |  |  |  |  |  |  |  |  | 
COc1cc([N+](=O)[O-])c(OC)cc1CCNCc1cccc(F)c1 (as salt: HCl) [25N-NB-3-F (24), [2-(2,5-dimethoxy-4-nitrophenyl)ethyl][(3-fluorophenyl)methyl]amine] | 216.2 to 217.5 °C |  |  |  |  |  |  |  |  |  |  | 
COc1cc(CCNCc2cccc3ccccc23)cc(OC)c1Br (as salt: HCl) [(31), 2-(4-bromo-3,5-dimethoxyphenyl)-N-[(naphthalen-1-yl)-methyl]ethan-1-amine] | 232.8 to 234.3 °C |  |  |  |  |  |  |  |  |  |  | 
COc1cc([N+](=O)[O-])c(OC)cc1CCNCc1ccccc1[N+](=O)[O-] (as salt: HCl) [25N-NBNO2 (15), [2-(2,5-dimethoxy-4-nitrophenyl)ethyl][(2-nitrophenyl)methyl]amine] | 200.5 to 201.7 °C |  |  |  |  |  |  |  |  |  |  | 
CCOc1ccccc1CNCCc1cc(OC)c([N+](=O)[O-])cc1OC [25N-NBOEt (5)] |  | 13.2-fold increase | 1.44 µmol/kg | 0.57 mg/kg | No activity | < 10% | 0.72 nM | 87 ± 2% | 0.88 nM | 99 ± 1% | 1.0 | 
COc1cc(OC)c(OC)cc1CCNCc1cccc(I)c1 (as salt: HCl) [(53), N-(3-iodobenzyl)-2-(2,4,5-trimethoxyphenyl)-ethan-1-amine] | 155.5 to 156.1 °C |  |  |  |  |  |  |  |  |  |  | 
COc1cc([N+](=O)[O-])c(OC)cc1CCNCc1ccccc1O (as salt: HCl) [25N-NBOH (3), 2-({[2-(2,5-dimethoxy-4-nitrophenyl)ethyl]amino}methyl)phenol] | 205 to 206.7 °C |  |  |  |  |  |  |  |  |  |  | 
COc1cc([N+](=O)[O-])c(OC)cc1CCNCc1ccccc1 (as salt: HCl) [25N-NB (2), Benzyl[2-(2,5-dimethoxy-4-nitrophenyl)ethyl]amine] | 220 to 221 °C |  |  |  |  |  |  |  |  |  |  | 
COc1cc([N+](=O)[O-])c(OC)cc1CCNCc1ccccc1C(F)(F)F (as salt: HCl) [25N-NBCF3 (14), [2-(2,5-dimethoxy-4-nitrophenyl)ethyl]({[2-(trifluoromethyl)phenyl]methyl}) amine] | 156.7 to 159.1 °C |  |  |  |  |  |  |  |  |  |  | 
COc1cc([N+](=O)[O-])c(OC)cc1CCNCc1ccccc1OC(F)F [25N-NBOCF2H (11), {[2-(difluoromethoxy)phenyl]methyl}[2-(2,5-dimethoxy-4-nitrophenyl)ethyl]amine] |  | 13.5-fold increase | 4.32 µmol/kg | 1.81 mg/kg | No activity | < 10% | 1.92 nM | ≤ 77% | 3.99 nM | 101 ± 1% | 1.9 | Induction of the HTR in mice (in words) (male C57BL/6J mice): lacked a HTR; also recorded: failed to induce a HTR; 5-HT2A Emax % 5-HT (5-HT2A [4]; Ca2+ flux): 95 ± 1 % 5-HT
COc1cc([N+](=O)[O-])c(OC)cc1CCNCc1ccccc1Br [25N-NBBr (9)] |  | 4.7-fold increase | 14.6 µmol/kg | 6.31 mg/kg | No activity | < 10% | 2.36 nM | 79 ± 2% | 144 nM | 78 ± 2% | 61.9 | EC50 (5-HT2C [1]): 0.0309 µM; Emax (5-HT2C [1]): 81 ± 2.3%; EC50 (5-HT2B [3]): 0.245 µM; Emax (5-HT2B [3]): 17 ± 2.1%
COc1cc([N+](=O)[O-])c(OC)cc1CCNCc1ccccc1Cl [25N-NBCl (8)] |  | 2.3-fold increase | 10.4 µmol/kg | 4.04 mg/kg | No activity | < 10% | 2.03 nM | 80 ± 2% | 89.3 nM | 81 ± 2% | 43.3 | EC50 (5-HT2C [1]): 0.0214 µM; Emax (5-HT2C [1]): 82.5 ± 2.8%; EC50 (5-HT2B [3]): 0.204 µM; Emax (5-HT2B [3]): 27 ± 3%
COc1cc([N+](=O)[O-])c(OC)cc1CCNCc1ccccc1F [25N-NBF (7)] |  | 4.5-fold increase | 4.1 µmol/kg | 1.52 mg/kg | No activity | < 10% | 1.56 nM | 84 ± 1% | 28.8 nM | 82 ± 2% | 18.9 | EC50 (5-HT2C [1]): 0.0141 µM; Emax (5-HT2C [1]): 83.1 ± 2.1%; EC50 (5-HT2B [3]): 0.0759 µM; Emax (5-HT2B [3]): 24.8 ± 3.2%
